Like-named read-outs stand apart in the source and are kept apart here.
Tests used:
[1] = target: T1, Neisseria meningitides alanine aminopeptidase (NmAPN) (Neisseria meningitidis, UniProt Q9JYV4); type: biochemical; conditions: substrate 3 μM, enzyme 1.37 nM, pH 7.5
T1 sequence (Q9JYV4 1-867): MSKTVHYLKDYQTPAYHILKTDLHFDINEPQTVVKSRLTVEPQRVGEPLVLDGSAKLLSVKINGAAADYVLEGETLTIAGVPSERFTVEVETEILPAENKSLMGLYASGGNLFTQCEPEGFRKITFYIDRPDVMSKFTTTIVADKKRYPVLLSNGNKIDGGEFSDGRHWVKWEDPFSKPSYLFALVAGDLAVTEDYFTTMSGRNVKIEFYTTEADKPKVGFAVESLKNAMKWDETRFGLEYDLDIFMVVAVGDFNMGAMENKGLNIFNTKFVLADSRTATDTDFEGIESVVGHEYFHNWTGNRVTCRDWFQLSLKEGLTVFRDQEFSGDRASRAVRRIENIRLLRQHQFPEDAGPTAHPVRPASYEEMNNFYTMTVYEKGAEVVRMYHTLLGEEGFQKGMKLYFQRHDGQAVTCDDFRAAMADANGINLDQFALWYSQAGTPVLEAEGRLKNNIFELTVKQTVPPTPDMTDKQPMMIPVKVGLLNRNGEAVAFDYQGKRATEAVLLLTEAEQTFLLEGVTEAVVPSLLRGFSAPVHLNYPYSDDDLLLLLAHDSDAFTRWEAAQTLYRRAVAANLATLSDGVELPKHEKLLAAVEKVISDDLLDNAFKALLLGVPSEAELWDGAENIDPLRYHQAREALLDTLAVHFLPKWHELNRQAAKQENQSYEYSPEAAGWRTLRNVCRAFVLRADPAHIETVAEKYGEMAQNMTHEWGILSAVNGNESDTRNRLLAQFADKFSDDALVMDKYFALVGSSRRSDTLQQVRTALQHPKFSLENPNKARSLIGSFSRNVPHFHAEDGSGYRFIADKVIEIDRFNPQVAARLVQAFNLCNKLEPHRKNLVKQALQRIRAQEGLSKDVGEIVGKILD

[2] = target: NmAPN (Neisseria meningitidis, UniProt Q9JYV4); test: biochemical; type: biochemical, Neisseria meningitides; conditions: for mode of inhibition: Lineweaver-Burk plot
[3] = target: T1, Neisseria meningitides alanine aminopeptidase (NmAPN); test: Kinetic parameters determination; type: biochemical; conditions: ACC substrate, 50 mM Tris-HCl pH 7.5, 37 °C, enzyme 1.13 nM
[4] = target: porcine kidney APN; conditions: cited from earlier work
[5] = target: PfAPN; conditions: Plasmodium falciparum APN; cited from earlier work

N[C@@H](Cc1ccc(OCC(=O)O)cc1)C(=O)O [4(1-carboxymethoxy)-L-Phe]
hydrolysis of ACC substrate by NmAPN (in words) [1]: not hydrolyzed

N=C(N)NCCCC(N)P(=O)(O)O (stereo not shown) [Compound 1]
IC50 [2]: 1910 ± 180 nM
Ki [2]: 1460 ± 140 nM

NC(CCc1ccccc1)[PH](=O)O (stereo not shown) [Compound 3]
IC50 [2]: 1910 ± 50 nM

CC[C@H](N)C(=O)Nc1ccc2c(CC(N)=O)cc(=O)oc2c1 [L-Abu]
rate of hydrolysis, proportional to kcat/Km, as percentage of the best substrate cleavage (L-hArg-ACC, 100%) [1]: 20–40%

NCC(=O)Nc1ccc2c(CC(N)=O)cc(=O)oc2c1 [Gly]
Km [3]: > 250 µM

NC(CCc1ccccc1)P(=O)(O)CC(Cc1ccccc1)C(=O)O (stereo not shown) [Compound 4]
IC50 [2]: 397 ± 24 nM
Ki [2]: 302 ± 18 nM
mode of inhibition [2]: reversible, competitive and tight-binding inhibitors
Ki [4]: 276 nM

NCCC(=O)O [β-Ala]
hydrolysis of ACC substrate by NmAPN (in words) [1]: not hydrolyzed

N=C(NCCC[C@H](N)C(=O)Nc1ccc2c(CC(N)=O)cc(=O)oc2c1)N[N+](=O)[O-] [L-Arg(NO2)]
rate of hydrolysis, proportional to kcat/Km, as percentage of the best substrate cleavage (L-hArg-ACC, 100%) [1]: 38.5–74.0%

NC(CCc1ccccc1)P(=O)(O)CC(Cc1ccc(O)cc1)C(=O)O (stereo not shown) [Compound 5]
IC50 [2]: 70 ± 7 nM
mode of inhibition [2]: reversible, competitive and tight-binding inhibitors
Ki [5]: 232 nM
Ki [4]: 36 nM

NC(=O)Cc1cc(=O)oc2cc(NC(=O)[C@@H](N)Cc3ccc(Br)cc3)ccc12 [Compound 4-Br-L-Phe]
Km [3]: > 250 µM

NC(CCc1ccccc1)P(=O)(O)CNC(Cc1ccc(O)cc1)C(=O)O (stereo not shown) [Compound 6]
IC50 ([2]; L-Arg-ACC 20 μM, enzyme 0.85 nM, 30 min preincubation, 37 °C): 3290 ± 150 nM
Ki ([2]; calculated from IC50 by Cheng-Prusoff equation, L-Arg-ACC 20 μM): 2510 ± 110 nM

NC(CCc1ccccc1)P(=O)(O)O (stereo not shown) [Compound 2]
IC50 [2]: 1660 ± 70 nM

NC(=O)Cc1cc(=O)oc2cc(NC(=O)[C@@H](N)CCC(=O)OCc3ccccc3)ccc12 [L-Glu(Bzl)]
rate of hydrolysis, proportional to kcat/Km, as percentage of the best substrate cleavage (L-hArg-ACC, 100%) [1]: 38.5–74.0%

NC(=O)CC[C@H](N)C(=O)Nc1ccc2c(CC(N)=O)cc(=O)oc2c1 [L-Gln]
Km [3]: > 250 µM
